# In BindingDB's records for doi:10.1016/j.bmcl.2010.10.094 (Universit&#224, 2010):
# Target: carbonic anhydrase XII (human)
# Assay: Inhibition of human recombinant CA12 catalytic domain by stopped-flow CO2 hydration method
row,SMILES,Ki
1,CCCOc1cc2oc(=O)ccc2cc1C(C)=O [6-acetyl-7-propoxy-2H-chromen-2-one],> 100000 nM
2,CCOc1ccc2ccc(=O)oc2c1C(C)=O [8-acetyl-7-ethoxy-2H-chromen-2-one],1 nM
3,CC(=O)c1c(OCc2ccccc2)ccc2ccc(=O)oc12 [8-acetyl-7-(benzyloxy)-2H-chromen-2-one],22.4 nM
4,CCCOc1ccc2ccc(=O)oc2c1C(C)=O [8-acetyl-7-propoxy-2H-chromen-2-one],0.98 nM
5,CCOc1ccc2ccc(=O)oc2c1C(=O)CC [7-ethoxy-8-propionyl-2H-chromen-2-one],33.2 nM
6,CC(=O)c1c(OCCC23CC4CC(CC(C4)C2)C3)ccc2ccc(=O)oc12 [8-Acetyl-7-(2-adamantan-1-yl-ethoxy)-chromen-2-one],31.5 nM
